In ChEMBL document CHEMBL2346566, “Small molecule inhibitors of PCNA/PIP-box interaction suppress translesion DNA synthesis” (Bioorg Med Chem, 2013):
The source made the active and inactive calls. The rule behind the calls is not given here.

Columns and labels:
Format in all cases: functional, cell-based
[1] = tested on: HeLa; experiment: Antiproliferative activity against human HeLa cells assessed as inhibition of at 10 uM after 18 hrs by assay
[2] = tested on: U2OS; experiment: Potentiation of cisplatin-induced cytotoxicity in human U2OS cells at 15 uM after 4 days by Alamar blue assay
[3] = tested on: U2OS; experiment: Cytotoxicity against human U2OS cells at 15 uM after 4 days by Alamar blue assay

In the case of `CC(C)NC(=O)N[C@H](CO)Cc1cc(I)c(Oc2ccc(O)cc2)c(I)c1`, the Activity [1] is reported as “Active”.

`COC(=O)N[C@H](CO)Cc1cc(I)c(Oc2ccc(O)cc2)c(I)c1` was tested, and the Activity [1] was “Active”.

In the case of `CC(=O)NC[C@@H](N)Cc1cc(I)c(Oc2ccc(O)cc2)c(I)c1`, the Activity [2] is reported as “Active”, the Activity [1] is reported as “Active” and the Activity [3] is reported as “inactive”.

In the case of `CCOCCNC(=O)CCc1cc(I)c(Oc2ccc(O)cc2)c(I)c1`, the Activity [1] is reported as “Active”.

With `CNC(=O)Cc1cc(I)c(Oc2ccc(O)c(I)c2)c(I)c1` the Activity [2] was “Active”, the Activity [1] was “Active” and the Activity [3] was “inactive”.

With `O=C(Cc1cc(I)c(Oc2ccc(O)c(I)c2)c(I)c1)N1CCOCC1` the Activity [1] was “Active”.

In the case of `CC(C)NC(=O)NC[C@@H](N)Cc1cc(I)c(Oc2ccc(O)cc2)c(I)c1`, the Activity [2] is reported as “Active”, the Activity [1] is reported as “Active” and the Activity [3] is reported as “inactive”.

With `CS(=O)(=O)NC[C@@H](N)Cc1cc(I)c(Oc2ccc(O)cc2)c(I)c1` the Activity [1] was “Active”.

`O=C(CCc1cc(I)c(Oc2ccc(O)cc2)c(I)c1)NCCO` was tested, and the Activity [1] was “Active”.

With `CNC(=O)CCc1cc(I)c(Oc2ccc(O)cc2)c(I)c1` the Activity [1] was “Active”.

For `O=C(CCc1cc(I)c(Oc2ccc(O)cc2)c(I)c1)N1CCOCC1`, the Activity [1] was “Active”.

With `N[C@H](CNC(=O)N1CCOCC1)Cc1cc(I)c(Oc2ccc(O)cc2)c(I)c1` the Activity [1] was “Active”.

`N[C@H](CNC(=O)CCN1CCOCC1)Cc1cc(I)c(Oc2ccc(O)cc2)c(I)c1` was tested, and the Activity [1] was “Active”.

`CS(=O)(=O)NC(=O)Cc1cc(I)c(Oc2ccc(O)c(I)c2)c(I)c1` was tested, and the Activity [1] was “Active”.

`O=C(Cc1cc(I)c(Oc2ccc(O)c(I)c2)c(I)c1)NS(=O)(=O)c1ccccc1` was tested, and the Activity [1] was “Active”.

In the case of `N[C@H](CO)Cc1cc(I)c(Oc2ccc(O)cc2)c(I)c1`, the Activity [2] is reported as “Active”, the Activity [1] is reported as “Active” and the Activity [3] is reported as “inactive”.

For `CN(C)C(=O)Cc1cc(I)c(Oc2ccc(O)c(I)c2)c(I)c1`, the Activity [1] was “Active”.

`O=C(CCc1cc(I)c(Oc2ccc(O)cc2)c(I)c1)NCC1CCCO1` (configuration not stated) was tested, and the Activity [1] was “Active”.

In the case of `CC(=O)N[C@H](CO)Cc1cc(I)c(Oc2ccc(O)cc2)c(I)c1`, the Activity [1] is reported as “Active”.
